Assay results: patent publication US20140213453A1, “PLANT GROWTH REGULATION” (SYNGENTA PARTICIPATIONS AG, priority 2011, published 2014)

What was measured:
Assay type in all cases: in vivo
winter rye (Rekrut) = test: Glasshouse trial, lodging after leaf spray at growth stage 30, winter rye; details: untreated check 18.9
Text: (§1) A glasshouse trial was setup to compare growth regulation effects of trinexapac-ethyl, cis-jasmone, and mixtures of trinexapac-ethyl and cis-jasmone at various rates, on summer barley (Pasadena) and winter rye (Rekrut). Each treatment was applied as a spray to the leaves of the plant at plant growth stage 30 (start of stem elongation). Assessments of lodging were made 30 days after application; the results are expressed as percentage lodging in Table 2. [table]

summer barley (Pasadena) = test: Glasshouse trial, lodging after leaf spray at growth stage 30, summer barley; details: for % lodging 30 DAA: summer barley, untreated check 32.2
Text: as §1

[1] = tested on: Poa annua golf course fairway; test: Turf study, clipping weights on golf course fairway; details: for Clipping weight (grams) per plot, 24-June / Clipping weight (grams) per plot, 10-June / Clipping weight (grams) per plot, 17-June / Clipping weight (grams) per plot, 3-July / Clipping weight (grams) per plot, 4-June: 3 applications on a 4 week schedule; for Clipping weight (grams) per plot, 24-June / Clipping weight (grams) per plot, 10-June / Clipping weight (grams) per plot, 17-June / Clipping weight (grams) per plot, 3-July / Clipping weight (grams) per plot, 4-June / Clipping weight (grams) per plot, Cumulative Clipping total: g ai/ha: TXP 96, CJN 50, TXP + cis-jasmone 72 + 50; for Clipping weight (grams) per plot, 24-June: check 11.95; for Clipping weight (grams) per plot, 10-June: check 12.1; for Clipping weight (grams) per plot, 17-June: check 13.8; for Clipping weight (grams) per plot, 3-July: check 15.7; for Clipping weight (grams) per plot, 4-June: check 21.5; for Clipping weight (grams) per plot, Cumulative Clipping total: total over all rating dates (not all shown), check 194
Protocol: A study was conducted on Poa annua golf course […], to compare the effects of treatment with cis-jasmone alone, trinexapac-ethyl alone, and combinations of cis-jasmone and trinexapac-ethyl. Clipping weights were measured at regular intervals.

barley = test: Trial in Switzerland, growth regulation (plant height) on barley; details: rates g AI/ha: TXP (Moddus EC250) 75, CJN (EC300) 50, TXP + CJN 75 + 50, untreated check 89
Text: A trial was setup in Switzerland to compare growth regulation effects of trinexapac-ethyl, cis-jasmone, and mixtures of trinexapac-ethyl and cis-jasmone on barley. Assessments of plant height were made 21 days after application.

[2] = Treatment 2: TXP (Moddus) 200 g AI/ha
[3] = Treatment 3: TXP (Moddus) 100 g AI/ha

How did the “% lodging 30 DAA” value (winter rye (Rekrut); Treatment 4: CJN 300 g AI/ha) turn out when `CC/C=C\CC1=C(C)CCC1=O` [CJN, cis-jasmone] was run?
The value was 23.3%.

And the “% lodging 30 DAA” value (winter rye (Rekrut); Treatment 5: CJN 150 g AI/ha)?
The value was 30.0%.

And the “% lodging 30 DAA” value (summer barley (Pasadena); Treatment 4: CJN 300 g AI/ha)?
The value was 60.0%.

And the “% lodging 30 DAA” value (summer barley (Pasadena); Treatment 5: CJN 150 g AI/ha)?
Its value is 70.0%.

What about the “effect on lodging, in words” value (summer barley (Pasadena); text summary for summer barley and winter rye, cis-jasmone treatments 4 and 5 compared to treatment 1 (untreated)) of the same compound?
Its value is “significantly increases lodging”.

What about the “Clipping weight (grams) per plot, 24-June” value [1] of the same compound?
The value was 14.7 a grams.

What about the “Clipping weight (grams) per plot, 10-June” value [1] of the same compound?
Its value is 12.8 a grams.

What about the “Clipping weight (grams) per plot, 17-June” value [1] of the same compound?
The value was 17.69 a grams.

What about the “Clipping weight (grams) per plot, 3-July” value [1] of the same compound?
Its value is 19.2 a grams.

What about the “Clipping weight (grams) per plot, 4-June” value [1] of the same compound?
The value was 21.7 a grams.

What about the “effect on clipping weights, in words” value ([1]; Poa annua turf, compared to the untreated control) of the same compound?
Its value is “increased clipping weights”.

And the “Clipping weight (grams) per plot, Cumulative Clipping total” value [1]?
Its value is 213.5 a grams.

What about the “Plant height (cm) 21DAA” value (barley) of the same compound?
The value was 90 cm.

Which results are given for `CCOC(=O)C1CC(=O)C(=C(O)C2CC2)C(=O)C1` (stereo not drawn) [TXP, trinexapac-ethyl, reference compound]?
% lodging 30 DAA (winter rye (Rekrut); [2]): 0.0%; % lodging 30 DAA (winter rye (Rekrut); [3]): 6.7%; % lodging 30 DAA (summer barley (Pasadena); [2]): 6.7%; % lodging 30 DAA (summer barley (Pasadena); [3]): 10.0%; Clipping weight (grams) per plot, 24-June [1]: 10.71 grams; Clipping weight (grams) per plot, 10-June [1]: 9.27 d grams; Clipping weight (grams) per plot, 17-June [1]: 11.35 grams; Clipping weight (grams) per plot, 3-July [1]: 18.2 a grams; Clipping weight (grams) per plot, 4-June [1]: 18.1 grams; Clipping weight (grams) per plot, Cumulative Clipping total [1]: 173 def grams; Plant height (cm) 21DAA (barley): 90 cm
